Measurements published in patent US12220394B2, “Pharmaceutical composition for prevention or treatment of kidney damage” (National University Corporation Kanazawa University, priority 2018, dated 2025).

Legend:
[1] = system: fibrotic tissue in kidney; assay: AZAN staining of kidney tissue after renal ischemia reperfusion; type: in vivo, C57BL/6J mice
Description: The animals were reared with free access to water and feed under conditions with an SPF environment and 12-hour light-dark cycling. C57BL/6J mice were purchased from Clea Japan, Inc. (Osaka). Male 12- to 16-week-old mice were treated by renal ischemia reperfusion (hereunder also referred to as “I/R”). The renal pedicles were clamped with a non-traumatic clip (Natsume Seisakusho, Tokyo) under pentobarbital anesthesia to elicit ischemia. The clips were released after 40 minutes. The body temperature was kept at 37° C. during treatment. The mice were reared with free access to water (control) or 20 mM D-alanine-containing water, prior to 14 days after IR treatment. On day 10 after IR treatment, the kidney tissues were sampled. After ischemia reperfusion, the kidney tissues sampled on day 10 were fixed with 10% neutral buffered formalin and provided for AZAN staining. In AZAN staining, fibrotic tissue is stained with aniline blue. […] The proportion of stained region in each group was measured (FIG. 4(B)).

[2] = system: kidney tissue after ischemia reperfusion; assay: PAS staining and ATN score of kidney tissue sections after renal ischemia reperfusion; type: in vivo, C57BL/6J mice; details: 10 days after ischemia reperfusion
Description: The animals were reared with free access to water and feed under conditions with an SPF environment and 12-hour light-dark cycling. C57BL/6J mice were purchased from Clea Japan, Inc. (Osaka). Male 12- to 16-week-old mice were treated by renal ischemia reperfusion (hereunder also referred to as “I/R”). The renal pedicles were clamped with a non-traumatic clip (Natsume Seisakusho, Tokyo) under pentobarbital anesthesia to elicit ischemia. The clips were released after 40 minutes. The body temperature was kept at 37° C. during treatment. […] On day 10 after IR treatment, the kidney tissues were sampled. After ischemia reperfusion, the kidneys sampled on day 10 were fixed with 10% neutral buffered formalin and embedded in paraffin, and then stained with periodic acid-Schiff (PAS staining). The stained slices were photographed with a bright-field microscope (FIG. 1). Debris stained with PAS (skin boundary) or brush border (skin boundary and cortical region) were quantitatively evaluated in at least 10 different locations. The debris, renal tubular dilation, brush border damage, and renal tubule necrosis were evaluated by ATN score (0: none, 1: mild, 2: moderate, 3: severe). Sample evaluation was carried out blind.

[3] = cited from earlier work
[4] = system: macrophages in kidney tissue; assay: F4/80 immunostaining of kidney tissue after renal ischemia reperfusion; type: in vivo, C57BL/6J mice
Description: The animals were reared with free access to water and feed under conditions with an SPF environment and 12-hour light-dark cycling. C57BL/6J mice were purchased from Clea Japan, Inc. (Osaka). Male 12- to 16-week-old mice were treated by renal ischemia reperfusion (hereunder also referred to as “I/R”). The renal pedicles were clamped with a non-traumatic clip (Natsume Seisakusho, Tokyo) under pentobarbital anesthesia to elicit ischemia. The clips were released after 40 minutes. The body temperature was kept at 37° C. during treatment. The mice were reared with free access to water (control) or 20 mM D-alanine-containing water, prior to 14 days after IR treatment. On day 10 after IR treatment, the kidney tissues were sampled. After ischemia reperfusion, the kidney tissues harvested on day 10 were fixed with 10% neutral buffered formalin and supplied for immunostaining using F4/80 antibody (Invitrogen, catalog #: MF48,000). F4/80 is a protein expressed specifically by macrophages, and it allows visualization of macrophages in kidney tissue. In the water-administered control group, cells stained with F4/80 were found accumulated in kidney tissue ([…]), but in the D-alanine-administered groups (20 mM and 80 mM) such cellular accumulation was minimal (FIG. 3(A)). The proportion of stained region in each group was measured (FIG. 3(B)).

[5] = 10 days after ischemia reperfusion, D-alanine group vs water group
[6] = D-alanine group compared with water group

C[C@@H](N)C(=O)O [D-alanine]
AZAN staining intensity of kidney tissue section (fibrosis) [1, 5]: decreased in a dose-dependent manner | aniline blue-stained regions (fibrotic tissue) in kidney tissue ([1]; day 10 after ischemia reperfusion, D-alanine 20 mM and 80 mM vs water-administered control): reduced in a dose-dependent manner | PAS staining intensity of kidney tissue section (accumulation of inflammatory cells such as neutrophils and eosinophils) ([2]; D-alanine 20 mM and 80 mM in drinking water vs water group): decreased in a dose-dependent manner | grade of brush border region in kidney tissue section (ATN score) [2, 6]: improved in a dose-dependent manner | grade of intraluminal debris in kidney tissue section (ATN score) [2, 6]: improved in a dose-dependent manner | grade of necrosis in kidney tissue section (ATN score) [2, 6]: improved in a dose-dependent manner | adverse events when used as a food ([3]; ingestion on the order of 10 g): No adverse events have been reported | toxicity via oral administration ([3]; oral administration): no reported toxicity | F4/80 staining intensity of kidney tissue section (accumulation of macrophages and monocytes) [4, 5]: decreased in a dose-dependent manner | accumulation of cells stained with F4/80 in kidney tissue ([4]; after ischemia reperfusion, D-alanine 20 mM and 80 mM vs water-administered control): minimal
